In patent US12600696B2 (XENIOPRO GMBH, priority 2017, dated 2026):

Columns and labels:
Type in all cases: cell-based
[1] = tested on: BHY cells (human oral squamous cell carcinoma cells); test: alamarBlue proliferation assay with BHY cells; settings: 72 h, 3 days treatment, single assay (preliminary), relative to DMSO basis level 1.0, read-out: equally weighted arithmetic mean (AVE) of six normalized fluorescence intensity values, activity range (RES: AVEw)
Procedure: Compounds were tested on BHY cells using the alamarBlue® proliferation assay in analogy to the above described method with seeding the cells at an initial number of 4000 cells per 96-well and a duration of treatment with compounds for 3 days.
BHY cells were cultivated according to the protocol of the provider (but at 5% instead of 10% CO2) in DMEM medium (Fisherscientific, #11584456) containing 10% fetal bovine serum (Fisherscientific, #15517589).
A compound is considered as a growth inhibitor of BHY cells, if—at a reference concentration of 40 μM—the equally weighted arithmetic mean (AVE) of the six normalized fluorescence intensity values after addition of the corresponding standard deviation amounts to 0.9 or lower, in particular to 0.8 or lower, 0.7 or lower, 0.6 or lower, 0.4 or lower, and 0.2 or lower, relative to the overall basis level of 1.0. The overall basis level was calculated as the weighted arithmetic mean (AVEw) of all normalized values from the DMSO control measurements. The corresponding combined standard deviation for the DMSO values amounts to less than 1·10^−2. The corresponding standard deviations for the tested compounds were calculated including the Gauß′ error propagation associated with the performed calculation for the normalization. The weighted arithmetic mean (AVEw) and the combined standard deviation for RES was calculated in analogy to DMSO. Outlier analyses were performed as described above.

[2] = tested on: C2C12 cells (murine myoblast cells); test: alamarBlue proliferation assay with C2C12 cells; settings: 40 μM, 3 days treatment, single assay (preliminary), relative to DMSO basis level 1.0
Procedure: Compounds were tested on C2C12 cells using the alamarBlue® proliferation assay in analogy to the above described method with seeding the cells at an initial number of 2000 cells per 96-well and a duration of treatment with compounds for 3 days.
In one embodiment, two compounds of the invention were found so far to inhibit the growth of C2C12 cells (murine myoblast cells) obtainable from the Deutsche Sammlung von Mikroorganismen and Zellkulturen GmbH (DSMZ) under the accession number ACC 565. C2C12 cells were cultivated according to the protocol of the provider in RPMI 1640 medium (Fisherscientific, #11554526) containing 10% fetal bovine serum (Fisherscientific, #15517589).
A compound is considered as a growth inhibitor of C2C12 cells, if—at a reference concentration of 40 μM—the equally weighted arithmetic mean (AVE) of the six normalized fluorescence intensity values after addition of the corresponding standard deviation amounts to 0.9 or lower, in particular to 0.8 or lower, 0.7 or lower, 0.6 or lower, 0.4 or lower, and 0.2 or lower, relative to the overall basis level of 1.0. The overall basis level was calculated as the equally weighted arithmetic mean (AVE) of the six normalized values from the DMSO control measurements in analogy to the calculations performed for the test-compounds. […]

[3] = tested on: HeLa cells (human cervical adenocarcinoma cells); test: alamarBlue proliferation assay with HeLa cells; settings: relative to DMSO basis level 1.0
Procedure: The antiproliferative activities of compounds falling under formula I, formula II, formula III, formula IV and formula V were investigated on cells or cell lines originating from a disorder of the myeloid cell compartment, the neuroendocrine system, the cervix, and the mucosal epithelium, as well as from the skin epithelium. To this end, HL-60 cells, TT cells, HeLa cells, CAL-27 cells and human primary epidermal keratinocytes (HPEK) were seeded into 96-well plates suitable for fluorescence assays (CORNING #3598) at following initial cell numbers: 1000 cells per well for HL-60; 9000 cells per well for TT; 2000 cells per well for HeLa, 2000 cells per well for CAL-27, 2000 cells per well for HPEK. […] The readout was taken with a multi-well plate-reader in the fluorescence mode with applying a filter for excitation at 560 nm (band width 10 nm) and for emission at 590 nm (band width 10 nm). […]
The assays were performed in duplicate or more replicates of independent single experiments each containing a six-fold replicate for every condition. For every individual plate, the measured fluorescence intensity values of the conditions with compound treatment were normalized against the corresponding equally weighted arithmetic mean of the fluorescence intensity values of the six DMSO treated control wells in order to obtain the relative values to a baseline level of 1.0. […]

## CCC(C)(C)c1ccc(Oc2ccc(C(=O)NO)cc2)cc1 [Compound 171, N-hydroxy-4-(4-(tert-pentyl)phenoxy)benzamide]
[1]
  activity at 40 µM: 40 to 60%

## O=C(NO)c1ccc(Oc2ccc(C3CCCCC3)cc2)cc1 [Compound 182, 4-(4-cyclohexylphenoxy)-N-hydroxybenzamide]
[1]
  activity at 40 µM: 20 to 40%

## O=C(NO)c1ccc(Oc2ccc(C34CC5CC(CC(C5)C3)C4)cc2)cc1 [Compound 186, 4-(4-(Adamantan-1-yl)phenoxy)-N-hydroxybenzamide]
[1]
  activity at 40 µM: 20 to 40%

## CC(C)c1ccc(Oc2ccc(C(=O)NO)cn2)cc1 [Compound 272, N-hydroxy-6-(4-isopropylphenoxy)nicotinamide]
[1]
  activity at 40 µM: 20 to 40%

## O=C(NO)c1ccc(Oc2ccc(C3CCCCC3)cc2)nc1 [Compound 284, 6-(4-Cyclohexylphenoxy)-N-hydroxynicotinamide]
[1]
  activity at 40 µM: 20 to 40%

## O=C(NO)c1ccc(Oc2ccc(C34CC5CC(CC(C5)C3)C4)cc2)nc1 [Compound 288, 6-(4-((3r,5r,7r)-adamantan-1-yl)phenoxy)-N-hydroxynicotinamide]
[1]
  activity at 40 µM: 20 to 40%

## O=C(NO)c1ccc(Oc2ccc(C34CC5CC(CC(C5)C3)C4)cc2)c(F)c1 [Compound 544, 4-(4-(Adamantan-1-yl)phenoxy)-3-fluoro-N-hydroxybenzamide]
[1]
  activity at 40 µM: 20 to 40%

## O=C(NO)c1cnc(Oc2ccc(C3CCCCC3)cc2)c(F)c1 [Compound 644, 6-(4-Cyclohexylphenoxy)-5-fluoro-N-hydroxynicotinamide]
[1]
  activity at 40 µM: 60 to 70%

## Oc1ccc(C=Cc2cc(O)cc(O)c2)cc1 [RES, resveratrol, reference compound]
[2]
  equally weighted arithmetic mean (AVE) of six normalized fluorescence intensity values, activity range: 0.3 ± 0.0
[3]; 40 μM
  weighted arithmetic mean (AVEw) of normalized fluorescence intensity, activity range: 0.4 ± 0.0
[3]; control RES at 20 μM
  weighted arithmetic mean (AVEw) of normalized fluorescence intensity: 0.9 ± 0.0
[1]
  activity at 40 µM: 60%
